Test results: patent US20230183818A1, “ANTIBIOTIC SUSCEPTIBILITY OF MICROORGANISMS AND RELATED MARKERS, COMPOSITIONS, METHODS AND SYSTEMS” (priority 2018, published 2023)
Converted amounts (≈) assume the structure as drawn.

Columns and labels:
Neisseria gonorrhoeae [1] = details: cited from earlier work
Neisseria gonorrhoeae [2] = test system: Neisseria gonorrhoeae
Procedure: Cultures were diluted (5X) into HFB. Each isolate culture was split into “treated” and “control” tubes.
During incubation, samples were collected for RNA sequencing at 5, 10, and 15 min (300 µL aliquot of sample was mixed into 600 µL of Qiagen RNA Protect Reagent (Qiagen, Hilden, Germany) for immediate RNA stabilization).
RNA was extracted using the Enzymatic Lysis of Bacteria protocol of the Qiagen RNeasy Mini Kit and processed according to the manufacturer’s protocol. DNA digestion was performed during extraction using the Qiagen RNase-Free DNase Set.
The quality of extracted RNA was measured using an Agilent 2200 TapeStation (Agilent, Santa Clara, CA, USA). Extracted RNA samples were prepared for sequencing using the NEBNext Ultra RNA Library Prep Kit for Illumina (New England Biolabs, Ipswitch, MA, USA) and the NEBNExt Multiplex Oligos for Illumina. […] Raw reads from the sequenced libraries were subjected to quality control to filter out low-quality reads and trim the adaptor sequences using Trimmomatic (version 0.35).
The reads were aligned to the FA 1090 strain of N. gonorrhoeae (NCBI Reference Sequence: NC_002946.2) using Bowtie2 (version 2.2.5) and quantified using the Subread package (version 1.5.0-p1). A pseudocount of 1 was added to the gene quantification; gene expression was defined in transcripts per million (TPM). […]

In the case of CO/N=C(\C(=O)N[C@@H]1C(=O)N2C(C(=O)[O-])=C(C[N+]3(C)CCCC3)CS[C@H]12)c1csc(N)n1 [Cefepime], the “MIC Breakpoint, S (susceptible)” value (Neisseria gonorrhoeae [1]) is given as at most 0.5 µg/mL.
For CO/N=C(\C(=O)N[C@@H]1C(=O)N2C(C(=O)O)=C(C)CS[C@H]12)c1csc(N)n1 [Cefetamet], the “MIC Breakpoint, S (susceptible)” value (Neisseria gonorrhoeae [1]) is given as at most 0.5 µg/mL.
For CO[C@@]1(NC(=O)CSCC#N)C(=O)N2C(C(=O)O)=C(CSc3nnnn3C)CS[C@@H]21 [Cefmetazole], the “MIC Breakpoint, I (intermediate)” value (Neisseria gonorrhoeae [1]) is listed as 4 µg/mL (≈ 8.48 µM), the “MIC Breakpoint, R (resistant)” value (Neisseria gonorrhoeae [1]) is listed as at least 8 µg/mL and the “MIC Breakpoint, S (susceptible)” value (Neisseria gonorrhoeae [1]) is listed as at most 2 µg/mL.
In the case of CO/N=C(\C(=O)N[C@@H]1C(=O)N2C(C(=O)O)=C(COC(C)=O)CS[C@H]12)c1csc(N)n1 [Cefotaxime], the “MIC Breakpoint, S (susceptible)” value (Neisseria gonorrhoeae [1]) is given as at most 0.5 µg/mL.
In the case of CO[C@@]1(NC(=O)Cc2cccs2)C(=O)N2C(C(=O)O)=C(COC(N)=O)CS[C@@H]21 [Cefoxitin], the “MIC Breakpoint, I (intermediate)” value (Neisseria gonorrhoeae [1]) is given as 4 µg/mL (≈ 9.36 µM), the “MIC Breakpoint, R (resistant)” value (Neisseria gonorrhoeae [1]) is given as at least 8 µg/mL and the “MIC Breakpoint, S (susceptible)” value (Neisseria gonorrhoeae [1]) is given as at most 2 µg/mL.
In the case of CC(C)(O/N=C(\C(=O)N[C@@H]1C(=O)N2C(C(=O)[O-])=C(C[n+]3ccccc3)CS[C@H]12)c1csc(N)n1)C(=O)O [Ceftazidime], the “MIC Breakpoint, S (susceptible)” value (Neisseria gonorrhoeae [1]) is listed as at most 0.5 µg/mL.
For CO/N=C(\C(=O)N[C@@H]1C(=O)N2C(C(=O)O)=CCS[C@H]12)c1csc(N)n1 [Ceftizoxime], the “MIC Breakpoint, S (susceptible)” value (Neisseria gonorrhoeae [1]) is given as at most 0.5 µg/mL.
In the case of CO/N=C(\C(=O)N[C@@H]1C(=O)N2C(C(=O)O)=C(CSc3nc(=O)c(=O)[nH]n3C)CS[C@H]12)c1csc(N)n1 [Ceftriaxone], the “MIC Breakpoint, S (susceptible)” value (Neisseria gonorrhoeae [1]) is given as at most 0.25 µg/mL.
For CO/N=C(\C(=O)N[C@@H]1C(=O)N2C(C(=O)O)=C(COC(N)=O)CS[C@H]12)c1ccco1 [Cefuroxime], the “MIC Breakpoint, I (intermediate)” value (Neisseria gonorrhoeae [1]) is listed as 2 µg/mL (≈ 4.71 µM), the “MIC Breakpoint, R (resistant)” value (Neisseria gonorrhoeae [1]) is listed as at least 4 µg/mL and the “MIC Breakpoint, S (susceptible)” value (Neisseria gonorrhoeae [1]) is listed as at most 1 µg/mL.
In the case of O=C(O)c1cn(C2CC2)c2cc(N3CCNCC3)c(F)cc2c1=O [Ciprofloxacin, ciprofloxacin], the “transcriptional response in resistant isolates” value (Neisseria gonorrhoeae [2]; resistant isolates, all time points (0-15 min)) is given as “did not significantly respond”, the “expression response of the six candidate markers (porB, rpmB, tig, yebC, pilB, cysK)” value (Neisseria gonorrhoeae [2]; susceptible isolates, 15 min exposure) is given as “downregulation” and the “resistant MIC breakpoint” value (Neisseria gonorrhoeae [1]; Neisseria gonorrhoeae) is given as 1.00 microgram/mL. For the same compound, the “susceptible MIC breakpoint” value (Neisseria gonorrhoeae [1]; Neisseria gonorrhoeae) was 0.06 microgram/mL, the “MIC Breakpoint, I (intermediate)” value (Neisseria gonorrhoeae [1]) was 0.12 to 0.5 µg/mL and the “MIC Breakpoint, R (resistant)” value (Neisseria gonorrhoeae [1]) was at least 1 µg/mL. The “MIC Breakpoint, S (susceptible)” value (Neisseria gonorrhoeae [1]) was at most 0.06 µg/mL.
For CCn1cc(C(=O)O)c(=O)c2cc(F)c(N3CCNCC3)nc21 [Enoxacin], the “MIC Breakpoint, I (intermediate)” value (Neisseria gonorrhoeae [1]) is listed as 1 µg/mL (≈ 3.12 µM), the “MIC Breakpoint, R (resistant)” value (Neisseria gonorrhoeae [1]) is listed as at least 2 µg/mL and the “MIC Breakpoint, S (susceptible)” value (Neisseria gonorrhoeae [1]) is listed as at most 0.5 µg/mL.
In the case of CN1CCN(c2c(F)cc3c(=O)c(C(=O)O)cn(CCF)c3c2F)CC1 [Fleroxacin], the “MIC Breakpoint, I (intermediate)” value (Neisseria gonorrhoeae [1]) is given as 0.5 µg/mL (≈ 1.35 µM), the “MIC Breakpoint, R (resistant)” value (Neisseria gonorrhoeae [1]) is given as at least 1 µg/mL and the “MIC Breakpoint, S (susceptible)” value (Neisseria gonorrhoeae [1]) is given as at most 0.25 µg/mL.
For CCn1cc(C(=O)O)c(=O)c2cc(F)c(N3CCNC(C)C3)c(F)c21 (stereo not shown) [Lomefloxacin], the “MIC Breakpoint, I (intermediate)” value (Neisseria gonorrhoeae [1]) is given as 0.25 to 1 µg/mL, the “MIC Breakpoint, R (resistant)” value (Neisseria gonorrhoeae [1]) is given as at least 2 µg/mL and the “MIC Breakpoint, S (susceptible)” value (Neisseria gonorrhoeae [1]) is given as at most 0.12 µg/mL.
For CN[C@@H]1[C@H](O)[C@H](NC)[C@H]2O[C@@]3(O)C(=O)C[C@@H](C)O[C@H]3O[C@@H]2[C@H]1O [Spectinomycin], the “MIC Breakpoint, I (intermediate)” value (Neisseria gonorrhoeae [1]) is listed as 64 µg/mL (≈ 193 µM), the “MIC Breakpoint, R (resistant)” value (Neisseria gonorrhoeae [1]) is listed as at least 128 µg/mL and the “MIC Breakpoint, S (susceptible)” value (Neisseria gonorrhoeae [1]) is listed as at most 32 µg/mL.
In the case of Penicillin, the “MIC Breakpoint, I (intermediate)” value (Neisseria gonorrhoeae [1]) is given as 0.12 to 1 µg/mL, the “MIC Breakpoint, R (resistant)” value (Neisseria gonorrhoeae [1]) is given as at least 2 µg/mL and the “MIC Breakpoint, S (susceptible)” value (Neisseria gonorrhoeae [1]) is given as at most 0.06 µg/mL.
